# Results taken from ChEMBL document CHEMBL1153704, “Imidazo[1,2-a]pyrazine diaryl ureas: inhibitors of the receptor tyrosine kinase EphB4” (Bioorg Med Chem Lett, 2009).
# Biological target: T1, Ephrin type-B receptor 4 (Homo sapiens, UniProt P54760)
# T1 sequence (P54760 whole entry): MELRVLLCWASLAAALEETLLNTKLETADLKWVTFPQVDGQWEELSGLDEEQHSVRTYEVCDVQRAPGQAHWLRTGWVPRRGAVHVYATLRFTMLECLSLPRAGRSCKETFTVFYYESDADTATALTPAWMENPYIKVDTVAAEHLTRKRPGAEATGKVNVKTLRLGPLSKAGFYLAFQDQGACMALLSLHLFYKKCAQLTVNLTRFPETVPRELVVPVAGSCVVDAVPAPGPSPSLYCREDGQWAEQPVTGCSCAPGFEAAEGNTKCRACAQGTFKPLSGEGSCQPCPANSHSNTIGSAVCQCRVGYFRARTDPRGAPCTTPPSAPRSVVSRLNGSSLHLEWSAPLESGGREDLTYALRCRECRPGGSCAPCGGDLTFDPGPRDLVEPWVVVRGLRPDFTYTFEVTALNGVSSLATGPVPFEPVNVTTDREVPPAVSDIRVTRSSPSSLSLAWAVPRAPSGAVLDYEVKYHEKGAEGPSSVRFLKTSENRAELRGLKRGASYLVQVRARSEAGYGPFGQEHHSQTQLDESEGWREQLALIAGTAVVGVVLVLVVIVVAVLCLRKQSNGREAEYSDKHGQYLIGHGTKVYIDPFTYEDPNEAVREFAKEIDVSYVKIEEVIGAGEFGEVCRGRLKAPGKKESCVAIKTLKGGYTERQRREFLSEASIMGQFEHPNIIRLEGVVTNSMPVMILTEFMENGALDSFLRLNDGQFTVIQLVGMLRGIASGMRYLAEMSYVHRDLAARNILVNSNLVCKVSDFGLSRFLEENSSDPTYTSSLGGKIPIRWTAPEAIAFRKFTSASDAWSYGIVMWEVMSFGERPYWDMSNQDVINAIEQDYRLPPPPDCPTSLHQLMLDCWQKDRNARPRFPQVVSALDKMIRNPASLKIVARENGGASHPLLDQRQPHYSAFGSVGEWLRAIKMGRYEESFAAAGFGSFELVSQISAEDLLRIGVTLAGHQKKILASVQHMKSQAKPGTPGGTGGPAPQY
# Test: Inhibition of EphB4 after 1 hr
row,IC50,Structure (SMILES)
1,4.6 µM,O=C(Nc1ccc(Cl)cc1)Nc1cccc(-c2cn3ccnc3c(NCc3ccncc3)n2)c1
2,50 µM,O=S(=O)(Nc1cccc(-c2cn3ccnc3c(NCc3ccncc3)n2)c1)c1cccc(C(F)(F)F)c1
3,1 µM,O=C(Nc1cccc(-c2cn3ccnc3c(NCc3ccncc3)n2)c1)Nc1c(Cl)cccc1Cl
4,0.037 µM,O=C(Nc1cccc(-c2cn3ccnc3c(NCc3ccncc3)n2)c1)Nc1cc(C(F)(F)F)ccc1O
5,0.138 µM,O=C(Nc1cccc(-c2cn3ccnc3c(NCc3ccncc3)n2)c1)Nc1cc(Cl)ccc1Oc1ccccc1
6,11.1 µM,O=C(NCc1cccc(C(F)(F)F)c1)c1cccc(-c2cn3ccnc3c(NCc3ccncc3)n2)c1
7,0.069 µM,CN(Cc1ccncc1)c1nc(-c2cccc(NC(=O)Nc3cccc(C(F)(F)F)c3)c2)cn2ccnc12
8,2.1 µM,O=C(NCc1cccc(C(F)(F)F)c1)Nc1cccc(-c2cn3ccnc3c(NCc3ccncc3)n2)c1
9,2.4 µM,O=C(Cc1cccc(C(F)(F)F)c1)Nc1cccc(-c2cn3ccnc3c(NCc3ccncc3)n2)c1
10,2.5 µM,O=C(Nc1cccc(-c2cn3ccnc3c(NCc3ccncc3)n2)c1)Nc1ccc(Cl)c(Cl)c1
11,0.077 µM,COc1ccc(Cl)cc1NC(=O)Nc1cccc(-c2cn3ccnc3c(NCc3ccncc3)n2)c1
12,0.3 µM,Cc1cccc(NC(=O)Nc2cccc(-c3cn4ccnc4c(NCc4ccncc4)n3)c2)c1
13,7.4 µM,O=C(Nc1ccc(F)cc1)Nc1cccc(-c2cn3ccnc3c(NCc3ccncc3)n2)c1
14,0.158 µM,O=C(Nc1cccc(-c2cn3ccnc3c(NCCc3ccncc3)n2)c1)Nc1cccc(C(F)(F)F)c1
15,5.3 µM,O=C(Nc1cccc(-c2cn3ccnc3c(NCc3ccc(C(=O)O)cc3)n2)c1)Nc1cccc(C(F)(F)F)c1
16,0.125 µM,COc1ccc(C#N)cc1NC(=O)Nc1cccc(-c2cn3ccnc3c(NCc3ccncc3)n2)c1
17,5.4 µM,COc1ccc(Cl)cc1NC(=O)Nc1cccc(-c2cn3ccnc3c(N)n2)c1
18,5.7 µM,CNc1nc(-c2cccc(NC(=O)Nc3cc(Cl)ccc3OC)c2)cn2ccnc12
19,0.402 µM,COc1cc(OC)c(NC(=O)Nc2cccc(-c3cn4ccnc4c(NCc4ccncc4)n3)c2)cc1Cl
20,0.078 µM,COc1ccc(C)cc1NC(=O)Nc1cccc(-c2cn3ccnc3c(NCc3ccncc3)n2)c1
21,0.85 µM,O=C(Nc1cccc(-c2cn3ccnc3c(NCc3ccncc3)n2)c1)Nc1ccc(F)c(C(F)(F)F)c1
22,50 µM,O=C(Nc1cccc(-c2cn3ccnc3c(NCc3ccccc3)n2)c1)Nc1cccc(C(F)(F)F)c1
23,0.206 µM,COc1cc(OC)c(NC(=O)Nc2cccc(-c3cn4ccnc4c(NCc4ccncc4)n3)c2)cc1Br
24,0.105 µM,O=C(Nc1cccc(-c2cn3ccnc3c(OCc3ccncc3)n2)c1)Nc1cccc(C(F)(F)F)c1
25,50 µM,O=C(Nc1ccc(-c2cn3ccnc3c(NCc3ccncc3)n2)cc1)Nc1cccc(C(F)(F)F)c1

row,IC50,Structure (SMILES)
1,0.101 µM,O=C(Nc1cccc(-c2cn3ccnc3c(NCc3ccncc3)n2)c1)Nc1cc(Cl)ccc1Cl
2,0.81 µM,Cc1ccc(NC(=O)Nc2cccc(-c3cn4ccnc4c(NCc4ccncc4)n3)c2)cc1C(F)(F)F
3,1.2 µM,CSc1cccc(NC(=O)Nc2cccc(-c3cn4ccnc4c(NCc4ccncc4)n3)c2)c1
4,7.9 µM,Cc1ccc(NC(=O)Nc2cccc(-c3cn4ccnc4c(NCc4ccncc4)n3)c2)cc1
5,50 µM,O=C(Nc1cccc(-c2cn3ccnc3c(NCC3CCNCC3)n2)c1)Nc1cccc(C(F)(F)F)c1
6,6.8 µM,O=C(NCc1cccc(-c2cn3ccnc3c(NCc3ccncc3)n2)c1)Nc1cccc(C(F)(F)F)c1
7,10.5 µM,O=C(Nc1cccc(Oc2ccccc2)c1)Nc1cccc(-c2cn3ccnc3c(NCc3ccncc3)n2)c1
8,0.211 µM,CCOc1cc(OCC)c(C(F)(F)F)cc1NC(=O)Nc1cccc(-c2cn3ccnc3c(NCc3ccncc3)n2)c1
9,1.7 µM,O=C(Nc1cccc(-c2cn3ccnc3c(NCc3ccncc3)n2)c1)Nc1ccccc1Br
10,1.7 µM,COc1cccc(NC(=O)Nc2cccc(-c3cn4ccnc4c(NCc4ccncc4)n3)c2)c1
11,0.16 µM,Cc1ccc(Cl)cc1NC(=O)Nc1cccc(-c2cn3ccnc3c(NCc3ccncc3)n2)c1
12,5.7 µM,O=C(Nc1cccc(-c2cn3ccnc3c(NCc3ccncc3)n2)c1)Nc1cccc(Cl)c1Cl
13,0.938 µM,Cc1ccc(C)c(NC(=O)Nc2cccc(-c3cn4ccnc4c(NCc4ccncc4)n3)c2)c1
14,0.744 µM,O=C(Nc1cccc(-c2cn3ccnc3c(NCc3ccncc3)n2)c1)c1cccc(C(F)(F)F)c1
15,0.518 µM,COc1cc(OC)c(C(F)(F)F)cc1NC(=O)Nc1cccc(-c2cn3ccnc3c(NCc3ccncc3)n2)c1
16,0.165 µM,O=C(Nc1cccc(Cl)c1)Nc1cccc(-c2cn3ccnc3c(NCc3ccncc3)n2)c1
17,0.066 µM,O=C(Nc1cccc(-c2cn3ccnc3c(NCc3ccncc3)n2)c1)Nc1cc(C(F)(F)F)ccc1Cl
18,0.213 µM,O=C(Nc1cccc(Br)c1)Nc1cccc(-c2cn3ccnc3c(NCc3ccncc3)n2)c1
19,0.517 µM,O=C(Nc1cccc(-c2cn3ccnc3c(NCc3ccncc3)n2)c1)Nc1cc(Cl)c(Cl)cc1Cl
20,7.8 µM,O=C(Nc1cccc(-c2cn3ccnc3c(NCc3cccnc3)n2)c1)Nc1cccc(C(F)(F)F)c1
21,1.9 µM,N#Cc1cccc(NC(=O)Nc2cccc(-c3cn4ccnc4c(NCc4ccncc4)n3)c2)c1
22,2.9 µM,O=C(Nc1cccc(-c2cn3ccnc3c(NCc3ccncc3)n2)c1)Nc1ccccc1Cl
23,1.8 µM,O=C(Nc1cc(Cl)cc(Cl)c1)Nc1cccc(-c2cn3ccnc3c(NCc3ccncc3)n2)c1
24,1.2 µM,O=C(Nc1cccc(-c2cn3ccnc3c(NCc3ccncc3)n2)c1)Nc1ccc(Cl)c(C(F)(F)F)c1
25,1.9 µM,O=C(Nc1cccc(-c2cn3ccnc3c(NCc3ccncc3)n2)c1)Nc1ccc(Cl)cc1Cl

# Biological target: T2, Ephrin type-B receptor 4 (Homo sapiens) (UniProt P54760)
# T2 sequence (whole entry): T1 sequence (P54760 whole entry)
# Test: Inhibition of EphB4 at 1 uM after 1 hr
row,inhibition,Structure (SMILES)
1,30%,Cc1ccccc1NC(=O)Nc1cccc(-c2cn3ccnc3c(NCc3ccncc3)n2)c1
2,1%,O=C(Nc1cccc(-c2cn3ccnc3c(Nc3cccnc3)n2)c1)Nc1cccc(C(F)(F)F)c1
3,2.9%,COc1ccc(C(F)(F)F)cc1NC(=O)CNc1cccc(-c2cn3ccnc3c(NCc3ccncc3)n2)c1
4,54%,COc1ccccc1NC(=O)Nc1cccc(-c2cn3ccnc3c(NCc3ccncc3)n2)c1
5,22%,O=C(Nc1cccc(-c2cn3ccnc3c(NCc3ccncc3)n2)c1)Nc1ccccc1F
6,22%,O=C(Nc1ccc(Br)cc1)Nc1cccc(-c2cn3ccnc3c(NCc3ccncc3)n2)c1
7,10%,O=C(Nc1ccccc1)Nc1cccc(-c2cn3ccnc3c(NCc3ccncc3)n2)c1
8,10%,O=C(Nc1ccc(C(F)(F)F)cc1)Nc1cccc(-c2cn3ccnc3c(NCc3ccncc3)n2)c1
9,47%,O=C(Nc1cccc(F)c1)Nc1cccc(-c2cn3ccnc3c(NCc3ccncc3)n2)c1
10,63%,CSc1ccccc1NC(=O)Nc1cccc(-c2cn3ccnc3c(NCc3ccncc3)n2)c1
11,41%,O=C(Nc1cccc(-c2cn3ccnc3c(NCc3ccncc3)n2)c1)Nc1ccccc1C(F)(F)F
12,22%,O=C(Nc1cccc(-c2cn3ccnc3c(NCc3ccncc3)n2)c1)Nc1ccccc1Oc1ccccc1
13,10%,CCc1ccc(NC(=O)Nc2cccc(-c3cn4ccnc4c(NCc4ccncc4)n3)c2)cc1
14,10%,COc1ccc(NC(=O)Nc2cccc(-c3cn4ccnc4c(NCc4ccncc4)n3)c2)cc1

# Biological target: T2, Ephrin type-B receptor 4 (Homo sapiens)
# Test: Inhibition of EphB4 at 10 uM after 1 hr
row,inhibition,Structure (SMILES)
1,32%,O=C(Nc1cccc(-c2cn3ccnc3c(Nc3ccncc3)n2)c1)Nc1cccc(C(F)(F)F)c1
